# In article PMC7076382 (Pharmaceutics, 2020):
# Where two headings read alike, the source gives them in different places. Non-standard residues stand in square brackets, D forms with d. Residues, ends and D or L forms follow the SMILES beside them. dTrp(2-Me) = Cc1[nH]c2ccccc2c1C[C@@H](N)C(=O)O
# Assays:
# jejunal segment [1] = assay: Blood-to-lumen jejunal 51Cr-EDTA clearance (CLCr-EDTA) during SPIP
# Procedure: (§1) At the SPIP experiment, the abdomen was opened along the midline and a jejunal segment of 10–15 cm was cannulated, covered with polyethylene wrap, and placed outside the abdomen. The bile duct was cannulated to avoid pancreaticobiliary secretion into the duodenum. […] During the first 30 min following surgery, each intestinal segment was single-passed perfused with 37 °C phosphate buffered saline (6 mM, pH 6.5 or 7.4). […] The length of the intestinal segment was measured after the jejunal cannulation as was the wet tissue weight of the segment after the experiment. The perfusion rate was at all times 0.2 mL/min (peristaltic pump, Gilson Minipuls 3, Le Bel, France).
# Luminal perfusates and blood plasma at 0 and 135 min were analyzed for ^51Cr activity (cpm) in a gamma counter (1282 Compugamma CS, Pharmacia AB, Uppsala, Sweden). A linear regression analysis of the plasma samples was made to obtain a corresponding plasma value for each perfusate sample. […] CLCr-EDTA was determined during the last 45 min for the control solution and during the last 60 min for the test solutions (the first 15 min in each period was for equilibration). […]
# (§2) Peff and CLCr-EDTA values, are expressed as the mean ± standard deviation (SD) or standard error of the mean (SEM). […]
# [2] = rat, in vivo, iv
# Procedure: (§3) Blood samples of <0.3 mL were collected from the femoral artery for a maximum volume of 4 mL during each experiment. All sampled blood volumes were replaced by an equivalent volume of saline (0.9% NaCl) containing 70 mg/mL bovine serum albumin. For the intravenous administration, blood was sampled over 6 h (at 5, 10, 20, 40, 60, 90 min and at 2, 4, and 6 h). […] The blood samples were put on ice and centrifuged (5000× g, 3 min at 4 °C) within 10 min of sampling; 100 μL of the plasma was transferred to 0.5 mL micro tubes and stored at −80 °C until analysis.
# (§4) Plasma CL values were derived from the two-compartment analysis of the intravenous plasma data and an assumed rat liver blood flow of 47 mL/min/kg [24].
# (§5) The plate was vortex-mixed for 10 min (pulse 1200) after which it was centrifuged for 10 min at 2862× g. The supernatants were then injected into the UHPLC-MS/MS system. The column used was an Acquity UPLC Peptide BEH C18 (50 × 2.1 mm length × inner diameter, 1.7 µm particle size) from Waters Corp. (Milford, MA, USA). The mobile phase consisted of (A) 0.1% formic acid in water and (B) 0.1% formic acid in acetonitrile. Gradient elution was initially 2.0% B for 0.50 min, with a linear increase to 90% B for 1.5 min, held constant at 90% B for 0.30 min, then back to 2.0% B in 0.30 min, and constant again at 2.0% B for 0.40 min. The total run time was 3.0 min.
# [3] = rat
# Procedure: (§6) In short, male Wistar Han rats (strain 273) from Charles River Co. (Cologne, Germany), weight 270–363 g, were used. On the study day, the rats were anesthetized using an intraperitoneal injection of a 5% w/v thiobutabarbital solution (180 mg/kg). Body temperature was maintained at 37.5 ± 0.5 °C. To validate the condition of the animal, the systemic arterial blood pressure was continuously recorded by connecting the arterial catheter to a transducer operating a PowerLab system (AD Instruments, Hastings, UK).
# as §1
# (§7) Each perfusate experiment was divided into two parts. […] The 10 and 20 mg/mL concentrations (suspensions) were used to evaluate if concentrations above saturation had any impact on membrane permeability.
# (§8) The five experiments were designed such that each rat was its own control. The experimental period started with a rapid filling (<30 s) of the whole segment with the perfusate (about 1.5 mL for a 10 cm segment). The intestinal segment and perfusates were kept at 37 °C, and all outgoing perfusate was collected and weighed at 15-min intervals.
# (§9) In short, an input rate was acquired by deconvolution of the plasma concentration–time profiles following the intestinal perfusion. […] From the input rate, an absorption rate was then calculated by compensating for first-pass extraction (Ffirstpass) of each compound in the rat intestine and liver. […] Plasma CL values were derived from the two-compartment analysis of the intravenous plasma data and an assumed rat liver blood flow of 47 mL/min/kg [24]. The Peff (cm/s) was then calculated by relating the absorption rate to the intestinal luminal area using Equation (2):(2) Peff=absorption rate/A × C where A is the area of the exposed intestinal segment described as a smooth cylinder with a radius of 0.2 cm and C is the concentration entering the luminal segment. Peff was evaluated from 0 to 135 min, and the mean Peff value of the two perfusion periods (60-min control and 75-min test) was regarded as representative for each individual rat.
# as §2
# [4] = rat, in vivo, iv; remark: listed apart in the source
# Procedure: as §3, §4, §5
# jejunal segment [5] = details: rat
# Procedure: as §6, §1, §7, §8, §9, §2
# [6] = cited from earlier work; for Log D6.5: pH 6.5; for Log D7.4: pH 7.4
# rat liver = details: in vivo; cited from earlier work
# rat intestine = details: cited from earlier work; for effect on permeation of small model drugs: caprate at 2 and 5 mg/mL
# in vivo = details: rat, iv
# Procedure: as §3, §4, §5
# [7] = Single-pass intestinal perfusion (SPIP), jejunal lumen-to-blood effective permeability (Peff); details: male, Wistar Han, rat, other: single-pass jejunal perfusion
# Procedure: as §6, §1, §7, §8, §9, §2
# [8] = dog, in vivo, po, 600 mg; cited from earlier work
# Caco-2 model = system: Caco-2 model; design: method as in PMID 11578108; details: cited from earlier work
# colonic = details: cited from earlier work
# intestinal lumen = system: intestinal lumen; design: method as in PMID 29758344; details: caprate dose of 11.4 mg/mL, formulation pH 6.5 and 7.4; cited from earlier work
# serine protease = system: serine protease; design: method as in PMID 9643439, PMID 11578108; details: rat, pefabloc SC at 0.3 mg/mL; cited from earlier work
# jejunal segment [9] = assay: Single-pass intestinal perfusion (SPIP), jejunal lumen-to-blood effective permeability (Peff); details: any investigated luminal concentration: SDS 5 mg/mL; caprate 5, 10, 20 mg/mL
# Procedure: as §6, §1, §7, §8, §9, §2
# [10] = n-octanol-water, source not given
compound,measurement,setting,value
"O=C([O-])CN(CCN(CC(=O)[O-])CC(=O)[O-])CC(=O)[O-].[51Cr+3] [^51Cr-EDTA, ^51Chromium-labeled ethylenediaminetetraacetate]",CLCr-EDTA (blood-to-lumen clearance),"jejunal segment [1]; control solution, mean ± SD, n = 24",0.092 ± 0.039 mL/min/100 g
Cc1[nH]c2ccccc2c1C[C@@H](NC(=O)[C@@H](N)Cc1cnc[nH]1)C(=O)N[C@@H](C)C(=O)N[C@@H](Cc1c[nH]c2ccccc12)C(=O)N[C@H](Cc1ccccc1)C(=O)N[C@@H](CCCCN)C(N)=O [hexarelin] (H-H[dTrp(2-Me)]AW[dF]K-NH2),clearance,[2],10.3 mL/min
same,Papp,[3],0.19 ± 0.14 ×10⁻⁶ cm/s
same,C1 (intercept of first term),[4],355.2 (416.9/293.5) nM
same,C2 (intercept of second term),[4],133.7 (149.1/118.3) nM
same,λ1 (slope of first term),[4],13.7 (17.5/10.0) h^−1
same,λ2 (slope of second term),[4],2.08 (2.26/1.91) h^−1
same,permeability at pH 6.5 compared to pH 7.4,jejunal segment [5],lower at pH 6.5 compared to pH 7.4
same,Log D6.5,[6],−3.40
same,Log D7.4,[6],−2.26
same,Ffirstpass (first-pass extraction),rat liver,0.63
C[C@H](N[C@@H](CCc1ccccc1)C(=O)O)C(=O)N1CCC[C@H]1C(=O)O [enalaprilat],C1 (intercept of first term),[4],428.6 (449.1/408.0) nM
same,C2 (intercept of second term),[4],87.7 (105.5/70.0) nM
same,λ1 (slope of first term),[4],3.9 (4.6/3.3) h^−1
same,λ2 (slope of second term),[4],0.38 (0.45/0.31) h^−1
same,basal permeability,rat intestine; rat SPIP,1.1 ×10⁻⁶ cm/s
same,clearance,in vivo,3 mL/min
same,Log D6.5,[6]; [10],−1.0
same,Log D7.4,[6]; [10],−1.0
same,Papp at 100 µM,[7],1.3 ± 0.9 ×10⁻⁶ cm/s
CC(C(=O)O)c1cccc(C(=O)c2ccccc2)c1 (centres unmarked) [ketoprofen],basal permeability,rat intestine; rat SPIP,160 ×10⁻⁶ cm/s
semaglutide,bioavailability,[8],0.29%
"CCCCCCCCCC(=O)[O-].[Na+] [caprate, sodium caprate]",increase of apparent permeability of hexarelin,Caco-2 model,over 200 fold
same,effect of caprate when pH was increased from 6.5 to 7.4,"colonic; 4 mg/mL caprate, rectal perfusion study",increased
same,human colonic Peff,colonic,1.4 ± 0.4 × 10^−4 cm/s
same,absorption-enhancing effect on small low permeability model compounds,"rat intestine; caprate at 2 mg/mL, rat jejunal SPIP",did not observe any absorption-enhancing effect
same,effective caprate concentrations,rat intestine; rat SPIP model,4 to 20 mg/mL
same,effect on permeation of small model drugs,"rat intestine; rat SPIP, SDS at 5 mg/mL",does not
same,absorption-enhancing effect,intestinal lumen,no effect
Cl.NCCc1ccc(S(=O)(=O)F)cc1 [pefabloc SC],inhibition of intestinal degradation of hexarelin,serine protease,completely inhibits
"CCCCCCCCCCCCOS(=O)(=O)[O-].[Na+] [SDS, sodium dodecyl sulfate]",pH dependence of the effect on the permeability of enalaprilat and CLCr-EDTA,"rat intestine; SDS at 5 mg/mL, pH 6.5 vs. 7.4",unaffected by pH
same,increase of absorption of atenolol,"rat intestine; SDS at 5 mg/mL, rat SPIP",10 fold
same,increase of absorption of enalaprilat,"rat intestine; SDS at 5 mg/mL, rat SPIP",40 fold
same,increase of absorption of ketoprofen,"rat intestine; SDS at 5 mg/mL, rat SPIP",not at all
same,effect on lumen-to-blood transport of four low permeation model compounds and on CLCr-EDTA,"rat intestine; SPIP model, acyclovir, atenolol, enalaprilat, phenol red",increase the lumen-to-blood transport
same,effect on permeation of small model drugs,"rat intestine; rat SPIP, SDS at 5 mg/mL",increases permeation in both absorptive and secretory directions
same,CLCr-EDTA ratio (test vs. control period),"jejunal segment [1]; permeation enhancer at 5 mg/mL, pH 7.4, solution",significant increase
same,effect on hexarelin absorption (Peff ratio of hexarelin),jejunal segment [9],Neither SDS nor caprate at any of the investigated luminal concentrations enhanced absorption
